Article PMC11836371, “Virtual fragment screening for DNA repair inhibitors in vast chemical space” (Nature Communications, 2025)
Values joined by “and” are separate entries in the source; they are usually repeats but may differ in a detail not shown here. Identical values can stand only once.

Key:
A2780 cells = assay: Cancer cell viability assay (resazurin), A2780; type: cell-based; design: key to cell viability, cytotoxicity curve (Figure3H): % viability relative to untreated control wells
Description: (§1) Three different cancer cell lines A2780 (ovarian cancer, ECACC 93112519), A549 (lung cancer, ATCC 60150896) and HCT116 (colon cancer, ATCC CCL-247), and one immortalized fibroblast cell line (BJhTERT) as control, were seeded in black/clear 384-well plates (Corning #3764), 50 µL/well, containing 11 concentrations, nano-dispensed, dose-response curves of the test compounds. A2780, HCT116, and HEK293T cell lines were authenticated with STR profiling, frozen down, and these stocks were used in experiments. The A2780 cells were cultured in RPMI 1640, the A549 and BJhTERT cells in DMEM, and the HCT116 cells in McCoys 5 A medium. All media were supplemented with 10% FBS and 1% P/S. All cell culture media, additives, and reagents were purchased from Thermo Fisher Scientific. The cell plates were incubated 72 hours in a humidified incubator at 37 °C with 5% CO2, after which resazurin (Sigma-Aldrich), 10 µL/well, was added to a final concentration of 10 µg/mL. The plates were incubated for 6 hours with resazurin followed by fluorescence readings in a Sense plate reader (Hidex), resorufin protocol (ex 544 nm/em 595 nm). The cell viability was calculated compared to untreated control wells and the EC50 values were determined in XLfit (IDBS).

[1] = Metabolic stability in human liver microsomes; type: in vitro ADME; conditions: pH 7.4, intrinsic clearance
Description: Human liver microsomes were purchased from BioIVT. Metabolic stability was determined in 0.5 mg/mL human liver microsomes at a compound concentration of 1 µM in 100 mM KPO4 buffer pH 7.4 in a total incubation volume of 500 µL. The reaction was initiated by the addition of 1 mM NADPH. At various incubation times, i.e., at 0, 5, 10, 20, 40, and 60 min, a sample was withdrawn from the incubation and the reaction was terminated by the addition of cold acetonitrile with warfarin as an internal standard. The amount of parent compound remaining was analyzed by liquid chromatography coupled to triple quadrupole mass spectrometry (LC-MS/MS).

Thermodynamic solubility = type: physicochemical; conditions: thermodynamic from solid
human OGG1 enzyme = human OGG1 enzyme (Homo sapiens, UniProt O15527); assay: OGG1 glycosylase activity assay (enzyme inhibition, APE1-coupled fluorescence); type: biochemical; conditions: read-out: IC50
BJhTERT cells = assay: Cell viability assay (resazurin), BJhTERT non-transformed control; type: cell-based; design: key to cell viability, cytotoxicity curve (Figure3H): % viability relative to untreated control wells
Description: A2780, HCT116, and HEK293T cell lines were authenticated with STR profiling, frozen down, and these stocks were used in experiments. […] All media were supplemented with 10% FBS and 1% P/S. All cell culture media, additives, and reagents were purchased from Thermo Fisher Scientific. The cell plates were incubated 72 hours in a humidified incubator at 37 °C with 5% CO2, after which resazurin (Sigma-Aldrich), 10 µL/well, was added to a final concentration of 10 µg/mL. […] The cell viability was calculated compared to untreated control wells and the EC50 values were determined in XLfit (IDBS).

[2] = system: NF-κB activation in HEK293T pGF NF-κB cells; assay: TNF-α induced NF-κB activation assay; type: cell-based
Description: The inhibition of TNF-α induced NF-κB activation was measured in HEK293T cells transfected with the pGreenfire NF-κB plasmid. This is a plasmid that has NF-κB response elements (TRE) coupled to GFP and luciferase expression. When the NF-κB is activated by TNF-α, it binds to the TRE and induces GFP expression, and the fluorescence can be measured in a plate reader. The cells were authenticated with STR profiling, frozen down and these stocks were used in experiments. The HEK293T pGF NF-κB cells were kept in DMEM with 5% FBS and 1% P/S but, when seeded for the assay the medium was changed to DMEM FluoroBrite with 1% dialyzed FBS. All cell culture reagents were purchased from Thermo Fisher Scientific. Compounds were nano-dispensed (Echo acoustic dispenser) in 96-well, black/clear, assay plates (Corning #3904), duplicate plates, in 8-points dose-response curves, 1:2 dilutions, with DMSO compensation (0.3% DMSO). Cells were seeded at 30000 cells/well in medium containing 10 ng/mL of TNF-α (Sigma-Aldrich), except negative control wells which only contained cells in medium. Cells were cultured for 24 hours in a humidified incubator at 37 °C with 5% CO2 after which the GFP fluorescence was measured in a Sense plate reader (Hidex) with ex485/em535. The RFU data from the duplicate plates were combined to calculate % inhibition of NF-κB activation and IC50-values were calculated using XLfit (IDBS). In parallel with the NF-κB assay, a CellTiterGlo (Promega) cell viability assay was run to exclude compounds affecting cell viability. Compounds were nano-dispensed (Echo acoustic dispenser) in assay plates in 11-points dose-response curves, 1:3 dilutions, without DMSO compensation, with duplicates on the same plate. Cells were seeded at 7500 cells/well in 25 µL medium (DMEM FluoroBrite with 1% dialyzed FBS) containing 10 ng/mL TNF-α and cultured for 24 hours, with column 24 containing only culture medium. After equilibration to room temperature, the CellTiterGlo reagents were mixed and 25 µL/well were added to the cell plate. After 2 min mixing of the plate on an orbital shaker, the plate was incubated for 10 min at room temperature followed by luminescence reading in Sense. The cell viability was calculated compared to untreated control wells and the EC50 values were determined in XLfit (IDBS). […]

A549 cells = assay: Cancer cell viability assay (resazurin), A549; type: cell-based; conditions: two independent experiments
Description: as §1

[3] = A2780, Log conc. (M) 1.69824e-9
[4] = A2780, Log conc. (M) 5.12861e-9
[5] = A2780, Log conc. (M) 1.51356e-8
[6] = A2780, Log conc. (M) 4.57088e-8
[7] = A2780, Log conc. (M) 1.38038e-7
[8] = A2780, Log conc. (M) 1.23027e-6
[9] = A2780, Log conc. (M) 3.71535e-6
[10] = A2780, Log conc. (M) 1.12202e-5
[11] = A2780, Log conc. (M) 3.31131e-5
[12] = BJhTERT, Log conc. (M) 1.69824e-9
[13] = BJhTERT, Log conc. (M) 5.12861e-9
[14] = BJhTERT, Log conc. (M) 1.51356e-8
[15] = BJhTERT, Log conc. (M) 4.57088e-8
[16] = BJhTERT, Log conc. (M) 1.38038e-7
[17] = BJhTERT, Log conc. (M) 4.0738e-7
[18] = BJhTERT, Log conc. (M) 1.23027e-6
[19] = BJhTERT, Log conc. (M) 3.71535e-6
[20] = BJhTERT, Log conc. (M) 1.12202e-5
[21] = BJhTERT, Log conc. (M) 3.31131e-5

Chain of human OGG1 enzyme (O15527 whole entry): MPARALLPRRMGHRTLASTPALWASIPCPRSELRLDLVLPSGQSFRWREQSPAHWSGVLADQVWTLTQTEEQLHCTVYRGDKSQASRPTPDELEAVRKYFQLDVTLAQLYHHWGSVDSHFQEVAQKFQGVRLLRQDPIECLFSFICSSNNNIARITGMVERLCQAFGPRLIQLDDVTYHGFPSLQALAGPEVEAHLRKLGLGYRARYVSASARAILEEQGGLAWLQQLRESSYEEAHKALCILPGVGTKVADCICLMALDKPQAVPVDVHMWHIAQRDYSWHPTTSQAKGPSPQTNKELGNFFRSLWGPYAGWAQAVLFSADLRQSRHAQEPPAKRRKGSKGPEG

For O=C(Nc1ccc(I)cc1)N1CCC(n2c(=O)[nH]c3c(Br)cccc32)CC1 [TH5487, reference compound], the “cell viability, cytotoxicity curve (Figure3H)” value (from here on “cell viability … (Figure3H)”) (A2780 cells; [3]) was 121.27 and 94.15, the “cell viability … (Figure3H)” value (A2780 cells; [4]) was 114.3 and 105.95 and the “cell viability … (Figure3H)” value (A2780 cells; [5]) was 105.54 and 93.28. The “cell viability … (Figure3H)” value (A2780 cells; [6]) was 111.22 and 83.28, the “cell viability … (Figure3H)” value (A2780 cells; [7]) was 102.55 and 80.89 and the “cell viability … (Figure3H)” value (A2780 cells; A2780, Log conc. (M) 4.0738e-7) was 93.7 and 80.77. For the same compound, the “cell viability … (Figure3H)” value (A2780 cells; [8]) was 109.2 and 106.39, the “cell viability … (Figure3H)” value (A2780 cells; [9]) was 104.11 and 96.04 and the “cell viability … (Figure3H)” value (A2780 cells; [10]) was 67.93 and 61.64. The “cell viability … (Figure3H)” value (A2780 cells; [11]) was 4.85 and 2.91, the “cell viability … (Figure3H)” value (A2780 cells; A2780, Log conc. (M) 0.0001) was 1.49 and 1.08 and the microsomal CLint at 1 µM [1] was 4.6 µL/min/mg. For the same compound, the solubility thermodynamic (Thermodynamic solubility) was under 1 µM, the IC50 (human OGG1 enzyme) was 340 nM and the “cell viability … (Figure3H)” value (BJhTERT cells; [12]) was 92.09. For the same compound, the “cell viability … (Figure3H)” value (BJhTERT cells; [13]) was 85.03, the “cell viability … (Figure3H)” value (BJhTERT cells; [14]) was 85.22 and the “cell viability … (Figure3H)” value (BJhTERT cells; [15]) was 94.5. The “cell viability … (Figure3H)” value (BJhTERT cells; [16]) was 96.92, the “cell viability … (Figure3H)” value (BJhTERT cells; [17]) was 95.59 and the “cell viability … (Figure3H)” value (BJhTERT cells; [18]) was 90.96. For the same compound, the “cell viability … (Figure3H)” value (BJhTERT cells; [19]) was 95.28 and 121.4, the “cell viability … (Figure3H)” value (BJhTERT cells; [20]) was 71.74 and 94.42 and the “cell viability … (Figure3H)” value (BJhTERT cells; [21]) was 58.03. The “cell viability … (Figure3H)” value (BJhTERT cells; BJhTERT, Log conc. (M) 0.0001) was 5.96, the “% inhibition of NF-κB activation (Figure3F)” value (“% inhibition” for short) ([2]; Concentration 2.34e-7, single replicates) was 18.9% and 16.9% and 37.3% and 20.7% and 19.4% and 19.3% and the “% inhibition” value ([2]; Concentration 4.69e-7, single replicates) was 18.1% and 35.6% and 25.7% and 21.2% and 9.2%. The “% inhibition” value ([2]; Concentration 9.38e-7, single replicates) was 12.4% and 13.4% and 36.2% and 34.5% and 36.5% and 30%, the “% inhibition” value ([2]; Concentration 1.88e-6, single replicates) was 21% and 33.9% and 49.1% and 39.2% and 40.4% and 37.2% and the “% inhibition” value ([2]; Concentration 3.75e-6, single replicates) was 58.6% and 64.7% and 55% and 52% and 44.1% and 44%. For the same compound, the “% inhibition” value ([2]; Concentration 7.5e-6, single replicates) was 81.2% and 86.7% and 75.9% and 78.4% and 98.7% and 81.3%, the “% inhibition” value ([2]; Concentration 1.5e-5, single replicates) was 101.6% and 99.3% (2×) and 95.7% and 105.1% and 123.3% and the “% inhibition” value ([2]; Concentration 3e-5, single replicates) was 104.2% and 102% and 99.9% and 101.1% and 123.3% and 102.7%.

With Nc1nn(-c2ccc(CC(=O)Nc3noc4c3CCCC4)cc2)c2ccccc12 [compound 11] the percentage cell viability (A2780 cells; A2780, 100 μM, two independent experiments, 100 µM) was 1.69%, the “cell viability … (Figure3H)” value (A2780 cells; [3]) was 91.8 and 117.36 and the “cell viability … (Figure3H)” value (A2780 cells; [4]) was 99.13 and 112.7. The “cell viability … (Figure3H)” value (A2780 cells; [5]) was 105.26 and 125.33, the “cell viability … (Figure3H)” value (A2780 cells; [6]) was 93.79 and 108.52 and the “cell viability … (Figure3H)” value (A2780 cells; [7]) was 82.27 and 122.21. For the same compound, the “cell viability … (Figure3H)” value (A2780 cells; A2780, Log conc. (M) 4.0738e-7) was 73.45 and 78.71, the “cell viability … (Figure3H)” value (A2780 cells; [8]) was 82.77 and 87.65 and the “cell viability … (Figure3H)” value (A2780 cells; [9]) was 59.52 and 70.03. The “cell viability … (Figure3H)” value (A2780 cells; [10]) was 22.19 and 22.95, the “cell viability … (Figure3H)” value (A2780 cells; [11]) was 6.15 and 7.44 and the “cell viability … (Figure3H)” value (A2780 cells; A2780, Log conc. (M) 0.0001) was 1.69. For the same compound, the viability at 100 µM (A2780 cells; Homo sapiens, A2780, A2780, 100 μM, two independent experiments, read-out: percentage cell viability) was 1.43%, the EC50 (A2780 cells; Homo sapiens, A2780 cancer cells, 72 h, read-out: EC50 (loss of viability)) was 5.4 µM and the percentage cell viability (A549 cells; A549, 100 μM, 100 µM) was 21.3%. The viability at 100 µM (A549 cells; Homo sapiens, A549, A549, 100 μM, read-out: percentage cell viability) was 17.2%, the percentage cell viability (BJhTERT cells; BJhTERT, 100 μM, two independent experiments) was 40.28% and the “cell viability … (Figure3H)” value (BJhTERT cells; [12]) was 80.73 and 114.45. For the same compound, the “cell viability … (Figure3H)” value (BJhTERT cells; [13]) was 111.95, the “cell viability … (Figure3H)” value (BJhTERT cells; [14]) was 93.48 and the “cell viability … (Figure3H)” value (BJhTERT cells; [15]) was 99.27. The “cell viability … (Figure3H)” value (BJhTERT cells; [16]) was 112.5, the “cell viability … (Figure3H)” value (BJhTERT cells; [17]) was 95.56 and the “cell viability … (Figure3H)” value (BJhTERT cells; [18]) was 91.5. The “cell viability … (Figure3H)” value (BJhTERT cells; [19]) was 96.04, the “cell viability … (Figure3H)” value (BJhTERT cells; [20]) was 108.1 and the “cell viability … (Figure3H)” value (BJhTERT cells; [21]) was 71.45. The “cell viability … (Figure3H)” value (BJhTERT cells; BJhTERT, Log conc. (M) 0.0001) was 40.28, the EC50 (BJhTERT cells; non-transformed cells (BJhTERT), 72 h, read-out: EC50 (loss of viability)) was over 70 µM and the EC50 ([2]; Homo sapiens, HEK-293T, NFκB activation assay, ± SD, read-out: pEC50 (converted)) was 10 µM.
